Source: patent publication US20230061201A1, “COMPOSITION FOR PREVENTING OR TREATING CHRONIC OBSTRUCTIVE PULMONARYDISEASE COMPRISING REGORAFENIB AS ACTIVE INGREDIENT” (Chungbuk National University Industry-Academic Cooperation …, priority 2021, published 2023)

Tests used:
Format in all cases: in vivo, C57BL/6 mice
[1] = tested on: mouse animal model with emphysema induced by porcine pancreatic elastase (PPE); test: Immune cells in bronchoalveolar lavage fluid of PPE-induced emphysema mice; settings: BAL fluid day 4
From the text: The present inventors performed an experiment to determine whether regorafenib has activity capable of treating chronic obstructive pulmonary disease. The initial response induced by PPE (porcine pancreatic elastase) representatively includes immune responses that occur in damaged lung tissue. The activated immune response promotes the proliferation of various immune cells and the secretion of various inflammatory mediators. Specifically, the overall number of immune cells increases with an increase in individual immune cells involved in the immune response. In particular, an increase in the numbers of macrophages, lymphocytes, eosinophils, and neutrophils is observed. The increase in the number of these cells can be confirmed through a bronchoalveolar lavage (BAL) fluid test.
Therefore, in the present invention, mice with chronic obstructive pulmonary disease, particularly emphysema, in which alveolar damage was induced by reducing elastin content using PPE, were prepared and then treated with regorafenib to thus analyze whether chronic obstructive pulmonary disease was ameliorated. Specifically, 6-week-old C57BL/6 mice were purchased and acclimatized for one week. Thereafter, the acclimatized 7-week-old mice (average 25 g) were orally administered with 200 µl of regorafenib (SelleckChem, BAY 73-4506) at a concentration of 5 mg/kg. […] The stained slide was analyzed and quantified using a microscope.
According to the method described above, a mouse animal model of chronic obstructive pulmonary disease was prepared by administering the mouse lungs with 5U of PPE, and in order to verify whether the immune response was modulated, one day before administration of PPE and on days 2 and 3 after administration of PPE, regorafenib (5 mg/kg) was administered thereto, and on day 4, bronchoalveolar lavage fluid was obtained and the immune cells therein were stained to thus quantitatively analyze the type of immune cells and the number of individual cells. […]

[2] = tested on: mouse animal model with emphysema induced by porcine pancreatic elastase (PPE); test: Alveolar size (mean linear intercept, Lm) in PPE-induced emphysema mice; settings: regorafenib 5 mg/kg oral for one week from two weeks after PPE 5U nasal; lungs on week 3, H&E
From the text: One of the pathological indicators of chronic obstructive pulmonary disease is changed alveolar size. Changes in the alveolar size can be analyzed by quantifying the mean linear intercept (Lm) value, representing the average distance between the alveolar walls, in a microscopic field of view. When chronic obstructive pulmonary disease is induced, this value increases, indicating an increase in the alveolar size.
Therefore, the present inventors analyzed whether it is possible to alleviate changes in lung structure by measuring the change in Lm value due to treatment with regorafenib in a mouse animal model with emphysema, a chronic obstructive pulmonary disease, prepared over three weeks through administration of PPE (FIG. 2A).
Specifically, 6-week-old C57BL/6 mice were acclimatized for one week, after which the acclimatized 7-week-old mice (average 25 g) were subjected to nasal administration with saline and PPE [elastase from porcine pancreas] (EPC, EC134) at a concentration of 5U. […] The prepared block was cut using a sectioning machine, attached to a slide, subjected to H&E staining, and then quantified by measuring the Lm value based on microscopic images.

[3] = tested on: mouse animal model with emphysema induced by porcine pancreatic elastase (PPE); test: Lung function (flexiVent) in PPE-induced emphysema mice; settings: regorafenib 5 mg/kg oral for one week from two weeks after PPE 5U nasal; flexiVent on week 3
From the text: In addition, the present inventors performed an experiment to determine whether regorafenib is able to restore lost function of damaged lungs in order to confirm whether regorafenib is able to treat chronic obstructive pulmonary disease.
Specifically, 6-week-old C57BL/6 mice were purchased and acclimatized for one week, after which the acclimatized 7-week-old mice (average 25 g) were subjected to nasal administration with saline and PPE [elastase from porcine pancreas] (EPC, EC134) at a concentration of 5U. Two weeks after administration, the mice were orally administered with 200 µl of regorafenib (SelleckChem, BAY 73-4506) at a concentration of 5 mg/kg for one week. Then, the mice were anesthetized using 300 µl of anesthetic on week 3, after which the lung function of each mouse was measured using a flexiVent (system for measuring the function of lungs) and quantified by subtracting the error value therefrom.

With `CNC(=O)c1cc(Oc2ccc(NC(=O)Nc3ccc(Cl)c(C(F)(F)F)c3)c(F)c2)ccn1` [regorafenib] the numbers of eosinophils ([1]; regorafenib 5 mg/kg oral) was “significantly decreased”, the numbers of neutrophils ([1]; regorafenib 5 mg/kg oral) was “significantly decreased” and the “decrease of the number of immune cells increased due to PPE” value ([1]; regorafenib 5 mg/kg oral one day before and on days 2 and 3 after PPE 5U nasal) was “about 50%”. The “decrease of Lm value compared to the PPE treatment group” value [2] was “about 50%” and the lung function indicators [3] was “restored”.
